According to PMC13534789, “Molecular Glue Degraders Enhance CAPRIN1‐Dependent Lysosomal Degradation of APP and Reduce Amyloid β in Alzheimer's Disease” (Advanced Science, 2026):

How the values were obtained:
[1] = target: T1, APP695–CAPRIN1 interaction (Homo sapiens, UniProt P05067+Q14444); test: SPR, APP695 onto immobilized CAPRIN1 with 0152; assay type: binding; details: equimolar 0152 vs no compound
T1 construct: 10xHis‐MBP‐APP695 (full‐length) alone was loaded; 10xHis (N); MBP (followed by a 3C site) (N); 10xHis (followed by a 3C site) (N); made in house; host or cells: Tni (Hi5) insect cells, baculovirus
Protocol: SPR experiments were conducted to investigate the interaction between APP695 and CAPRIN1 proteins using a Biacore T200 instrument (Cytiva). Both proteins were expressed in Tni (Hi5) insect cells and purified to homogeneity via tandem affinity and ion‐exchange. Protein purity and integrity were confirmed by SDS‐PAGE and size‐exclusion chromatography prior to analysis. All experiments were performed in a running buffer consisting of 50 mM HEPES at […], 100 mM KCl, 10% glycerol, and 0.01% (v/v) Tween‐20 supplemented with 0.1% (w/v) Sarkosyl (pH 7.4). APP695 was serially diluted in running buffer to final concentrations of 15, 5, 1, and 0.3 µM. Chip Preparation: A CM5 sensor chip (Cytiva) was activated using a 1:1 (v/v) mixture of 0.1 M N‐hydroxysuccinimide (NHS) and 0.1 M N‐ethyl‐N′‐(3‐dimethylaminopropyl) carbodiimide (EDC) to generate reactive ester groups. CAPRIN1 was diluted to 50 µg/mL in 10 mM Hepes‐KOH buffer (pH 6.0) and immobilized on the chip surface via standard amine coupling to achieve immobilization. Unreacted sites were blocked with 1 M ethanolamine‐HCl (pH 8.5). A reference flow cell was prepared similarly but without protein immobilization to control for non‐specific binding and bulk refractive index changes. Binding assay: Binding interactions were measured at 25°C with a flow rate of 30 µL/min. APP695 solutions were injected over the CAPRIN1‐immobilized and reference flow cells for 45 s (association phase), followed by a 240 s dissociation phase with running buffer alone. Internal control injections for one concentration of APP695 were performed to ensure reproducibility for every round of the experiment. […] APP (1–300) was also tested for binding to CAPRIN1 under identical conditions. To assess potential non‐specific interactions, 0043 and 0152 were tested for binding to APP‐695 captured on a CM5 chip using a steady‐state model. Data analysis: Sensograms were processed using Biacore T200 Evaluation Software. […]

[2] = test system: 5xFAD transgenic mice; test: Amyloid pathology in 5xFAD mice (IHC, Thioflavin S, ELISA); assay type: in vivo, mouse
Description: (§1) Female 5xFAD transgenic mice (9–10 weeks old) were used to evaluate the efficacy of 0152 in reducing amyloid pathology. Mice were housed under Indiana University standard laboratory conditions. For intraperitoneal (IP) administration, mice received either vehicle or 0152 (indicated concentrations) in a formulation consisting of 20% DMSO, 20% Cremophor EL, and 60% PBS. For oral (PO) administration, mice received either vehicle or 0152 (indicated concentrations) in a formulation consisting of 10% NMP (N‐methyl‐2‐pyrrolidone), 10% PG (Propylene Glycol), 5% Solutol HS‐15, and 75% Captisol (10% w/v in RO water). At the end of the treatment period, mice were sacrificed, and their brains were collected for histological analysis. Brain tissues were fixed in 10% Formalin, embedded in paraffin, and sectioned. Thioflavin S staining was performed to visualize β‐sheet‐rich amyloid plaques, and immunohistochemistry was conducted using the 6E10 monoclonal antibody to detect Aβ plagues. Body weights were recorded daily throughout the study.
iPSC‐Ns or HEK‐APP695WT were treated with drugs, and secreted Aβ42 peptides inculture soup were quantified using the Human Amyloid β1‐42 human ELISA kit (Thermo Fisher) according to the manufacturer's protocol. Mouse brain extraction was performed as previously described, with minor modifications. Mouse brain tissues were homogenized at a 1:10 weight‐to‐volume ratio in Tris‐buffered saline (TBS; 50 mM Tris, pH 7.4, 150 mM NaCl) supplemented with 2 mM EDTA and protease inhibitors. TBS‐homogenized brains were centrifuged for 1 h at 16 000 g. To extract total Aβ, including insoluble fractions, formic acid was added to a final concentration of 70%, and the samples were thoroughly mixed by pipetting. Homogenates were centrifuged at 100 000 g for 1 h at 4°C, and the resulting supernatants were collected. Prior to quantification, formic acid‐containing samples were neutralized with 1 M Tris base (pH 11). Aβ40 and Aβ42 levels were measured using human‐specific ELISA kits (Invitrogen) and normalized to total protein concentrations determined by the BCA assay (Thermo Scientific). For Aβ quantification in 3D organoids, 3D organoids’ processing and ELISA analysis were performed with minor modifications from previously described protocols. Briefly, cerebral organoids were lysed in RIPA buffer supplemented with protease and phosphatase inhibitor cocktails (Sigma), followed by sonication and incubation on ice for 60 min. Lysates were centrifuged at 13 000 rpm for 1 h at 4°C, and the supernatants were collected as the RIPA‐soluble fraction. The remaining pellets were resuspended in 70% formic acid, sonicated, and subsequently neutralized with Tris buffer to obtain the formic acid‐solubilized fraction. Aβ42 levels in both fractions were measured using human‐specific ELISA kits (Thermo Fisher) according to the manufacturer's instructions. Formic acid extracts were appropriately neutralized prior to ELISA. Aβ levels were normalized to total protein concentration determined by BCA assay.
Autopsy samples of brain tissues were provided, and immunohistochemistry was performed in the Department of Pathology and Laboratory Medicine, Indiana University School of Medicine, following the institutional protocols. Paraffin‐embedded 3D organoids and human AD patient brain samples were subjected to Hematoxylin and Eosin (H&E), synapses, GFAP, CAPRIN1 (polyclonal Rabbit anti‐CAPRIN1, 15112‐1‐AP, Proteintech), APP (monoclonal mouse anti‐APP/Aβ (6E10), 803001, Biolegend; MAB348, Millipore Sigma) in a Dako automated instrument using the Dako Flex detection system. The primary antibodies and secondary antibodies were used in colocalization experiments with human AD brain biopsy samples, then imaged using a confocal microscope system. Thioflavin‐S was stained with deparaffinization and rehydration of mouse brain sections using a series of xylene and ethanol washes. […]

[3] = Tolerability and body weight in 5xFAD mice; assay type: in vivo
Description: as §1

[4] = 80 mg/kg IP twice per day, 30 days
[5] = 80 mg/kg oral gavage twice daily, 30 days

T1 sequence (P05067 18-695 isoform P05067-4 limits assumed): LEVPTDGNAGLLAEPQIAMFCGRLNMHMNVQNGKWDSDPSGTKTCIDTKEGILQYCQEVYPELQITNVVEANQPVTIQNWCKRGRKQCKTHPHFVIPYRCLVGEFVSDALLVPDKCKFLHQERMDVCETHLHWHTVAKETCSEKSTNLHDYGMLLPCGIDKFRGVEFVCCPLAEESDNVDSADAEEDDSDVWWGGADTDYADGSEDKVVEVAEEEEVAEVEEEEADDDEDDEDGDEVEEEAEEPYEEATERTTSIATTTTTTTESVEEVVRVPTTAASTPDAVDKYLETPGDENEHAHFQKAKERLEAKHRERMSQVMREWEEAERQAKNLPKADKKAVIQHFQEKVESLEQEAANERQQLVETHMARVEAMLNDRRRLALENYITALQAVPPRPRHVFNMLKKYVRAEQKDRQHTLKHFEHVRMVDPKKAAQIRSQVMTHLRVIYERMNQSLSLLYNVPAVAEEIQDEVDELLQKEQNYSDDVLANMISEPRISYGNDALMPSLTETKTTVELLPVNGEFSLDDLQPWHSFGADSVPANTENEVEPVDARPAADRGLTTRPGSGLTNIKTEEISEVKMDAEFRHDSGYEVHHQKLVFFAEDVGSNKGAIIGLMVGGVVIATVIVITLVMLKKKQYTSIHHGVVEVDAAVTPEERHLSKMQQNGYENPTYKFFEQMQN
T1 sequence (Q14444 whole entry): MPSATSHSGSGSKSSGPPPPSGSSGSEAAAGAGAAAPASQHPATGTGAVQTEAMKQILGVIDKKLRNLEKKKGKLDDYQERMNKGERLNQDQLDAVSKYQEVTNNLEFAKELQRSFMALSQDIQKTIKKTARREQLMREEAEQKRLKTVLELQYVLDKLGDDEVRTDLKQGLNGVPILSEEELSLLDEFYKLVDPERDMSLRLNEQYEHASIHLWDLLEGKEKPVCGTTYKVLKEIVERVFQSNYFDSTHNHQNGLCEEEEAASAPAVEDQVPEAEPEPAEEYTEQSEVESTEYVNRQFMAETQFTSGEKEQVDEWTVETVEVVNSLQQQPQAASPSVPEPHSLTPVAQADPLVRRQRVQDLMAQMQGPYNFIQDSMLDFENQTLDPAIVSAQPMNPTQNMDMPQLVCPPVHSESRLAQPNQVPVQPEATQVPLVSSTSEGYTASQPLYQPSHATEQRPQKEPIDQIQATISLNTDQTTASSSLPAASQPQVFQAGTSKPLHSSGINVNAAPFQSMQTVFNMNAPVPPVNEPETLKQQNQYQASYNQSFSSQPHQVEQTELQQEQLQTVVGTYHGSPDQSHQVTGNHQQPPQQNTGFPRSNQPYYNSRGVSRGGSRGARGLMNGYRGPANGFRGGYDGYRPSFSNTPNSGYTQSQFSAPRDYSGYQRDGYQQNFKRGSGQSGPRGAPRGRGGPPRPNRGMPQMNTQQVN

SMILES: COc1cccc(NC(=O)Nc2nc3ccc(C(=O)N4CCOCC4)cc3s2)c1 [compound 0152]
- Decrease of dissociation rate constant (Koff) of APP695–CAPRIN1 [1]: 10 fold
- Increase of association rate constant (Kon) of APP695–CAPRIN1 [1]: 3.5 fold
- Reduction of equilibrium dissociation constant (KD) of APP695–CAPRIN1 [1]: 36 fold
- APP/Aβ-positive areas and plaque sizes in subiculum and hippocampus, plaque sizes in cortex (IHC) [2, 4]: significantly reduced
- Fibrillar Aβ plaques in subiculum (Thioflavin S) [2, 4]: drastically reduced fibrillar Aβ plaques
- APP/Aβ-positive areas and plaque sizes in subiculum (IHC, Thioflavin S) [2, 5]: significant reduction
- APP/Aβ-positive area and amyloid plaque size, hippocampus and subiculum (IHC) ([2]; 100 mg/kg IP daily, 24 days): significant reductions
- Aβ40 and Aβ42 levels in hemispheric brain lysates (ELISA) ([2]; 100 mg/kg IP daily, 24 days): marked decreases
- Fibrillar Aβ plaques in subiculum (Thioflavin S) ([2]; 100 mg/kg IP daily, 24 days): reduced fibrillar Aβ plaques
- Plaque burden in cortex (IHC) ([2]; 100 mg/kg IP daily, 24 days): minimal changes
- Tolerability, body weight [3, 4]: well tolerated with no weight loss
- Body weight [3, 5]: no observed weight loss
- Tolerability (lethargy, ataxia, paralysis, seizures, weight loss) ([3]; 100 mg/kg IP daily, 24 days): tolerated treatment well
